Test results as given in the NIST ThermoML archive (doi:10.1021/je200697m).
± gives the expanded uncertainty stated by the source.

Details: Liquid

SMILES	vapor or sublimation pressure (363.41 K) [kPa]	vapor or sublimation pressure (337.84 K) [kPa]
COC(=O)OC [dimethyl carbonate]	101.32 ± 1.7	
CO [methanol]		101.32 ± 1.7
